From ChEMBL document CHEMBL1154954, “Synthesis and in vitro evaluation of (18)F-labelled S-fluoroalkyl diarylguanidines: Novel high-affinity NMDA receptor antagonists for imaging with PET” (Bioorg Med Chem Lett, 2010)
Active and inactive are the calls of the source. The rule behind the calls is not given here.

Columns and labels:
[1] = Binding affinity to NMDA receptor PCP binding site
Glutamate NMDA receptor = assay: Displacement of [3H]TCP from NMDA receptor PCP binding site in rat cerebral cortex homogenate; assay type: tissue-based
[2] = Distribution coefficient, log D at pH 7.5; assay type: physicochemical; settings: octanol/water
[3] = Lipophilicity, log D of the compound; assay type: physicochemical; settings: octanol/water
hERG (KCNH2) = hERG (KCNH2) (Homo sapiens, UniProt Q12809); assay: Inhibition of human ERG at 1 uM
[4] = Octanol-phosphate buffer partition coefficient, log D at pH 7.4; assay type: physicochemical
[5] = target: Voltage-gated inwardly rectifying potassium channel KCNH2 (Homo sapiens, UniProt Q12809); assay: Inhibition of human ERG at 10 nM; settings: 0.01 µM
[6] = target: Sigma non-opioid intracellular receptor 1 (Homo sapiens) (UniProt Q99720); assay: Inhibition of sigma 1 receptor at 10 nM; settings: tested as the 18F-labelled form
[7] = Inhibition of opioid receptor at 1 uM; settings: tested as the 18F-labelled form
[8] = target: Sigma non-opioid intracellular receptor 1 (Homo sapiens) (UniProt Q99720); assay: Inhibition of sigma 1 receptor at 1 uM; settings: tested as the 18F-labelled form
[9] = target: 5-hydroxytryptamine receptor 5A (Homo sapiens) (UniProt P47898); assay: Inhibition of 5HT5A receptor at 1 uM; settings: tested as the 18F-labelled form
[10] = Inhibition of voltage gated sodium channel site 2 at 10 nM; settings: tested as the 18F-labelled form
[11] = Inhibition of GABA A receptor at 1 uM; settings: tested as the 18F-labelled form
[12] = Inhibition of opioid receptor at 10 nM; settings: tested as the 18F-labelled form
[13] = target: Sodium-dependent noradrenaline transporter (Homo sapiens) (UniProt P23975); assay: Inhibition of norepinephrine transporter at 1 uM; settings: tested as the 18F-labelled form
[14] = Inhibition of voltage gated sodium channel site 2 at 1 uM; settings: tested as the 18F-labelled form
[15] = target: 5-hydroxytryptamine receptor 5A (Homo sapiens) (UniProt P47898); assay: Inhibition of 5HT5A receptor at 10 nM; settings: tested as the 18F-labelled form
[16] = target: Sodium-dependent noradrenaline transporter (Homo sapiens) (UniProt P23975); assay: Inhibition of norepinephrine transporter at 10 nM; settings: tested as the 18F-labelled form
[17] = Inhibition of sigma 2 receptor at 1 uM; settings: tested as the 18F-labelled form
[18] = Inhibition of GABA A receptor at 10 nM; settings: tested as the 18F-labelled form
[19] = Inhibition of sigma 2 receptor at 10 nM; settings: tested as the 18F-labelled form

Chain of Sigma non-opioid intracellular receptor 1 (Homo sapiens) (Q99720 whole entry): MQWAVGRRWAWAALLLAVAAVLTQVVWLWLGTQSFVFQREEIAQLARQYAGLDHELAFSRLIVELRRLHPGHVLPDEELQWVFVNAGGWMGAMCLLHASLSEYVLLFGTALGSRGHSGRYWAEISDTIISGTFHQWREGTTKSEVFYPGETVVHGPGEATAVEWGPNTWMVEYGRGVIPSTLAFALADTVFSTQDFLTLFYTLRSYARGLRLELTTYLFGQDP
Chain of Sodium-dependent noradrenaline transporter (Homo sapiens) (P23975 whole entry): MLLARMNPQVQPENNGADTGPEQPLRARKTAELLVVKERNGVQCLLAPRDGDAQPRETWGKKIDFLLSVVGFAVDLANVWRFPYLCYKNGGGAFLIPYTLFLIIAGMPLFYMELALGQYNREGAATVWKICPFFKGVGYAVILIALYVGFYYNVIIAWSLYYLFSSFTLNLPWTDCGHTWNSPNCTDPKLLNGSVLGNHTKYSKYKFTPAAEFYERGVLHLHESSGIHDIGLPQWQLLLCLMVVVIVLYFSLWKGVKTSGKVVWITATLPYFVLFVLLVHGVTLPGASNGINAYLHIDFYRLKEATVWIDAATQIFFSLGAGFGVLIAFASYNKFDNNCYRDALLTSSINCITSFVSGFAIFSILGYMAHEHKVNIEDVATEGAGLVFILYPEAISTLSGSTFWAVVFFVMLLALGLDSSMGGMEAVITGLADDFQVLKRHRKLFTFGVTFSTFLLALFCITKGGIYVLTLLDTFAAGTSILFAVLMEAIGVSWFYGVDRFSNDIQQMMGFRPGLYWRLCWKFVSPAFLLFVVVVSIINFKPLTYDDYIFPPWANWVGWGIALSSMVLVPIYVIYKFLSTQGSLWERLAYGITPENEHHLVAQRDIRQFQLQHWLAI
Chain of 5-hydroxytryptamine receptor 5A (Homo sapiens) (P47898 whole entry): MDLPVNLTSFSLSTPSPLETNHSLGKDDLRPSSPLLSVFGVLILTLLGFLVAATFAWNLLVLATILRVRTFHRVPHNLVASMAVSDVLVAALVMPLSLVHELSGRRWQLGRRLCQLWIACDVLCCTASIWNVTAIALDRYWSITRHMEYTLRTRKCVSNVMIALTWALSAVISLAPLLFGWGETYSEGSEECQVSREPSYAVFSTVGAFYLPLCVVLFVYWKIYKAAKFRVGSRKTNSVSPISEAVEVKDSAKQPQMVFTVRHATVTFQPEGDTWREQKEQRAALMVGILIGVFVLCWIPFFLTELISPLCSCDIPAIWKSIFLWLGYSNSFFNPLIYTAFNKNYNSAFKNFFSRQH
Chain of Voltage-gated inwardly rectifying potassium channel KCNH2 (Q12809 whole entry): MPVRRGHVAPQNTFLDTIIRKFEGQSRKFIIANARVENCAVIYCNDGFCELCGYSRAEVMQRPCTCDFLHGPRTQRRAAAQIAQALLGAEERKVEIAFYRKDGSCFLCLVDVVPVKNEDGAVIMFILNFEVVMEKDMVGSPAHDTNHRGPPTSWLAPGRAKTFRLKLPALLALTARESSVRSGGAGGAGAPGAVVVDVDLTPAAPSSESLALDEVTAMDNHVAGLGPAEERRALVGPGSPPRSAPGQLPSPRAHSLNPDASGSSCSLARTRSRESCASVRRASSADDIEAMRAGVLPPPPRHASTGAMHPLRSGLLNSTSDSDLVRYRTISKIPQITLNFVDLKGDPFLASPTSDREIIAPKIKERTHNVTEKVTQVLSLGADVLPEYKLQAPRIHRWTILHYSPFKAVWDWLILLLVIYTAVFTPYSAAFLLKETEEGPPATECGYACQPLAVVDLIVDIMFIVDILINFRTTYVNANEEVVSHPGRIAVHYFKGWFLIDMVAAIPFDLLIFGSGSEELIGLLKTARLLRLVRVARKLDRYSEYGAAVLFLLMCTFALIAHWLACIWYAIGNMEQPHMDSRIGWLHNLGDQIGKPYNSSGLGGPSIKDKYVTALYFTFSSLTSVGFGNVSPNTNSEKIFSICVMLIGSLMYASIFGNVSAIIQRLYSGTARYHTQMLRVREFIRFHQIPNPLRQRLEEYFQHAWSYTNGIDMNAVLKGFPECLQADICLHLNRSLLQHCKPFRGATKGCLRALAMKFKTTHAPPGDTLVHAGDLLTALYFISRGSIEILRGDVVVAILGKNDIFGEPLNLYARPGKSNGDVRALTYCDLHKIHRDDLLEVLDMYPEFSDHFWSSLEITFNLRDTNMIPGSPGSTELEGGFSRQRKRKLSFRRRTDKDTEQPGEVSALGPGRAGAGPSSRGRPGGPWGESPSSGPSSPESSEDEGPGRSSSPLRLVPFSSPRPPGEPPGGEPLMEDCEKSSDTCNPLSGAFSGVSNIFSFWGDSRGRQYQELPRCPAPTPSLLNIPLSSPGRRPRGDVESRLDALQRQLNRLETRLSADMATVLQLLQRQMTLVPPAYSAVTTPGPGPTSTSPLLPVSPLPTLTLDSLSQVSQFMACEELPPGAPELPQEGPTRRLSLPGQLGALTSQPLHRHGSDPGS
Chain of hERG (KCNH2) (Q12809 whole entry): as above

With `CSc1ccc(Cl)c(NC(=N)N(C)c2cccc(O[11CH3])c2)c1` the Kd [1] was 5.2 nM.
`CSc1ccc(Cl)c(NC(=N)N(C)c2cccc(S[11CH3])c2)c1` gave a Kd (Glutamate NMDA receptor) of 1.78 nM, a logD [2] of 2.68 and a Kd [1] of 1.9 nM.
In the case of `CN(C(=N)Nc1cccc2ccccc12)c1cccc([123I])c1`, the logD [3] is reported as 2.19 and the Kd [1] is reported as 4.2 nM.
In the case of `CSc1cccc(N(C)C(=N)Nc2cc(SCC[18F])ccc2Cl)c1`, the inhibition at 1 µM (hERG (KCNH2)) is reported as 56%, the Kd (Glutamate NMDA receptor) is reported as 2.35 nM and the logD [4] is reported as 2.49. The Activity [5] was “Not Active”.
With `[18F]CC12NC(Cc3ccccc31)c1ccccc12` (centres undefined) the Kd [1] was 79 nM.
For `[18F]CCc1ccc(C2(N3CCCCC3)CCCCC2)s1`, the Kd [1] was 38 nM.
In the case of `C[C@]12C[C@@H]3C[C@](N)(C1)C[C@@](C[18F])(C3)C2`, the IC50 [1] is reported as 6000 nM.
Molecule `CSc1cccc(N(C)C(=N)Nc2cc(SC[18F])ccc2Cl)c1` has a Kd (Glutamate NMDA receptor) of 1.38 nM.
With `CSc1cccc(N(C)C(=N)Nc2cc(SCCF)ccc2Cl)c1` the Activity [6] was “inactive”, the Activity [7] was “Active” and the Activity [8] was “Active”. For the same molecule, the Activity [9] was “Active”, the Activity [10] was “inactive” and the Activity [11] was “Active”. The Activity [12] was “inactive”, the Activity [13] was “Active” and the inhibition [14] was 47%. The Activity [15] was “inactive”, the Activity [16] was “inactive” and the Activity [17] was “Active”. The Activity [18] was “inactive” and the Activity [19] was “inactive”.
`[11CH3]NC1(c2ccccc2)CCCCC1=O` (centres undefined) [[11C]KETAMINE] gave a Kd [1] of 1200 nM.
